11 compounds from PMC9145846, “Polycyclic Phenol Derivatives from the Leaves of Spermacoce latifolia and Their Antibacterial and α-Glucosidase Inhibitory Activity” (Molecules, 2022) can be followed below.

≈ marks a conversion by molar mass, not a printed value. Structures can show the parent of a compound that is named as a salt. Where two headings read alike, the source gives them in different places. Bounds are passed on as bounds.

The test system of assay [1] is Staphyloccocus aureus (CMCC26003). Nature of the assay: Antibacterial assay (resazurin, 96-well doubling dilution), SA. The class given is cell-based. As to conditions: for MIC: read-out: MIC, SA. On the procedure:
(§1) The antibacterial assay was monitored in 96-well plates by using a method as described previously. Briefly, 100 μL indicator solution (resazurin in sterile water, 100 μg/mL) was first placed into each of the sterility control wells (11th column) on the 96-well plates, and the indicator solution (about 7.5 mL, 100 μg/mL) was mixed with test bacteria (5 mL, 10^6 cfu/mL, OD600 = 0.07) followed by transferring (100 μL, each) to growth control wells (12th column) and all test wells (1–10th column). Then, each of 100 μL of test compounds (1 mg/mL) in beef extract peptone medium, along with the positive control solutions (prepared by adding kanamycin sulfate and vancomycin instead of the samples) and the negative control solution (3% DMSO of beef extract peptone medium), were applied to the wells in the 1st column of the plates. Once all samples and controls were properly applied to the 1st column of wells on the plate, half of the homogenized content (100 μL solution) was then parallel-transferred from the 1st column wells to the 2nd column wells, and each subsequent well was treated similarly (doubling dilution) up to the 10th column, followed by discarding the last 100 μL aliquot. Finally, the plates were incubated at 37 °C for 5–6 h until the color of growth control change to pink. The lowest concentration for each test compound at which […] was recorded as the MIC value of the test compound. In the bioassay, Gram-(+) bacterial strains of Staphyloccocus aureus (CMCC26003), methicillin-resistant Staphylococcus aureus (MRSA), Bacillus cereus (CMCC63302), Bacillus subtilis (CMCC63501), and Gram-(−) bacterial strain of Escherichia coli (CMCC44102) were used for the test, and they were all purchased from the Guangdong Institute of Microbiology (Guangzhou, China).
On the technique in general: The colour change of resazurin is a common sign of viable cells or microbes.

The test system of assay [2] is methicillin-resistant Staphylococcus aureus (MRSA). Nature of the assay: Antibacterial assay (resazurin, 96-well doubling dilution), MRSA. The class given is cell-based. The conditions noted are these: for MIC: MRSA, read-out: MIC, MRSA. On the procedure: as §1
Assay [3] relates to Bacillus subtilis (CMCC63501). The assay can be described thus: Antibacterial assay (resazurin, 96-well doubling dilution), BS. It is filed as cell-based. On the procedure: as §1
For assay [4], the system named is Escherichia coli (CMCC44102). Nature of the assay: Antibacterial assay (resazurin, 96-well doubling dilution), EC. The class given is cell-based. On the procedure:
as §1

The test system of assay [5] is Bacillus cereus (CMCC63302). Nature of the assay: Antibacterial assay (resazurin, 96-well doubling dilution), BC. It is filed as cell-based. On the procedure:
as §1

The next assay has as its target α-glucosidase (Saccharomyces cerevisiae, UniProt P53341). The assay can be described thus: α-Glucosidase inhibition assay (PNPG substrate). The conditions noted are these: read-out: α-Glucosidase inhibitory activity IC50; mean ± SD (n = 3); pH 6.8, PNPG, 37 °C, 15 min.
Where [6] appears, read: Staphyloccocus aureus, 37 °C, 5–6 h, resazurin colour change.
[7] abbreviates: methicillin-resistant Staphylococcus aureus, 37 °C, 5–6 h, resazurin colour change.
The mark [8] stands for this setting: CMCC63501, 37 °C, 5–6 h, resazurin colour change, read-out: MIC, BS.
Where [9] appears, read: CMCC44102, 37 °C, 5–6 h, resazurin colour change, read-out: MIC, EC.
The mark [10] stands for this setting: CMCC63302, 37 °C, 5–6 h, resazurin colour change, read-out: MIC, BC.
The mark [11] stands for this setting: 37 °C, 5–6 h, resazurin colour change.

α-glucosidase, sequence (P53341 whole entry): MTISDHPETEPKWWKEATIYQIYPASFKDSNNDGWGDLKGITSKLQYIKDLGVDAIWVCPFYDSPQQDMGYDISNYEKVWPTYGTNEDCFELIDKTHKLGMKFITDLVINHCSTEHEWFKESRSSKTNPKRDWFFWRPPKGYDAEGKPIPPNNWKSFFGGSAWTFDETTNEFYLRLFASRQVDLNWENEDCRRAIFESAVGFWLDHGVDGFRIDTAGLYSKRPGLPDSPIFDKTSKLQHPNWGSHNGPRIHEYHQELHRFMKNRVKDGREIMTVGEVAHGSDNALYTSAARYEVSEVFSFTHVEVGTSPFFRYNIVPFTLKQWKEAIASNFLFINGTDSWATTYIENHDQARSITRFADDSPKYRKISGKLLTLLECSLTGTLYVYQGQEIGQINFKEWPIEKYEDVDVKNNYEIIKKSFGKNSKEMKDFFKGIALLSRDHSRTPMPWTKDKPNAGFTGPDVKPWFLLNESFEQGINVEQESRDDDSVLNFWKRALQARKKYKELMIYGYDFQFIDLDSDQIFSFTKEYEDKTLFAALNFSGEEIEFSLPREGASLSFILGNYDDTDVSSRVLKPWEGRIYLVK
Experimental for α-glucosidase: The a-glucosidase inhibitory activity of the ten isolated compounds was determined in 96-well microtiter plates following the method as described previously [15, 42]. In brief, α-glucosidase (20 μL, 0.5 U/mL) and various concentrations (500, 250, 125, 62.5, 31.2, 15.6, 7.8, 3.9 µg/mL) of tested compounds (120 μL) in 67 mM phosphate buffer (pH 6.8) were mixed in 96-well microtiter plates at room temperature for 10 min. Reactions were initiated by addition of 20 μL of 5.0 mM p-nitrophenyl-α-d-glucopyranoside (PNPG). The reaction mixture was incubated for 15 min at 37 °C in a final volume of 160 μL. Then, 0.2 M Na2CO3 (80 μL) was added to the incubation solution to stop the reaction and the absorbance was determined at 405 nm (for p-nitrophenol). The negative blank was set by adding phosphate buffer instead of test compounds via the same experimental procedure. […] The blank was set by adding phosphate buffer instead of the α-glucosidase using the same method. Inhibition rate (%) = [(ODnegative control − ODblank) − (ODtest − ODtest blank)]/(ODnegative blank − ODblank) × 100%. IC50 values were calculated and expressed as means ± standard deviations (SD) and SPSS 23.0 software was used for the analysis of variances.

With `CC(=O)c1cc2c(O)c3oc(=O)ccc3cc2o1` [Compound 1, 2-acetyl-4-hydroxy-6H-furo [2,3-g]chromen-6-one], the MIC in assay [1] (setting [6]) was 62.5 µg/mL (≈ 256 µM); in assay [2] (setting [7]), more than 100 µg/mL; in assay [3] (setting [8]), 31.2 µg/mL (≈ 128 µM); in assay [4] (setting [9]) it was more than 100 µg/mL; in assay [5] (setting [10]) it was 31.2 µg/mL (≈ 128 µM). Besides, the “MIC, MRSA” value in assay [2] (setting [7]) is “inactive”.

Take `COc1cc2ccc(=O)oc2c(O)c1O` [Compound 7, 7,8-dihydroxy-6-methoxycoumarin]: the MIC in assay [1] (setting [6]), in assay [2] (setting [7]), in assay [3] (setting [8]), in assay [4] (setting [9]) and in assay [5] (setting [10]) was more than 100 µg/mL throughout.

For “6,7,8,4′-tetramethoxyflavone [Compound 10]”, the “MIC, SA” value in assay [1] (setting [6]) came out at 62.5 µg/mL. Moreover, the “MIC, MRSA” value in assay [2] (setting [7]) is more than 100 µg/mL. For the same compound, at α-glucosidase, the IC50 was more than 1000 µM. Moreover, in assay [3] (setting [11]), the “MIC, BS” value was found to be 15.6 µg/mL. In assay [4] (setting [11]), the “MIC, EC” value was more than 100 µg/mL. Moreover, the “MIC, BC” value in assay [5] (setting [11]) was determined as 62.5 µg/mL.

Consider `O=c1ccc2cc(O)c(O)cc2o1` [Compound 5, esculetin], for which the MIC in assay [1] (setting [6]) was 31.2 µg/mL (≈ 175 µM); in assay [2] (setting [7]), more than 100 µg/mL; in assay [3] (setting [8]), 7.81 µg/mL (≈ 43.8 µM); in assay [4] (setting [9]), more than 100 µg/mL; in assay [5] (setting [10]), 31.2 µg/mL (≈ 175 µM). The “MIC, MRSA” value in assay [2] (setting [7]) was “inactive”.

On to `COc1c(O)cc2oc3cc4c(c(O)c3c(=O)c2c1CC=C(C)C)C=CC(C)(C)O4` [Compound 4, 5,9-dihydroxy-8-methoxy-2,2-dimethyl-7-(3-methylbut-2-enyl)-2H,6H-pyrano [3,2-b]xanthen-6-one], for which the MIC was 1.95 µg/mL (≈ 4.77 µM) in assay [1] (setting [6]); 1.95 µg/mL (≈ 4.77 µM) in assay [2] (setting [7]); 1.95 µg/mL (≈ 4.77 µM) in assay [3] (setting [8]); more than 100 µg/mL in assay [4] (setting [9]); 1.95 µg/mL (≈ 4.77 µM) in assay [5] (setting [10]).

Consider `CC(O)(CO)c1cc2c(O)c3oc(=O)ccc3cc2o1` (stereo not drawn) [Compound 2, 2-(1′,2′-dihydroxypropan-2′-yl)-4-hydroxy-6H-furo [2,3-g][1] benzopyran-6-one], for which the MIC in assay [1] (setting [6]) was 62.5 µg/mL (≈ 226 µM); in assay [2] (setting [7]), more than 100 µg/mL; in assay [3] (setting [8]), 62.5 µg/mL (≈ 226 µM); in assay [4] (setting [9]), more than 100 µg/mL; in assay [5] (setting [10]), 62.5 µg/mL (≈ 226 µM). Moreover, the “MIC, MRSA” value in assay [2] (setting [7]) was “inactive”.

Turning to `NC[C@H]1O[C@H](O[C@H]2[C@H](O)[C@@H](O[C@H]3O[C@H](CO)[C@@H](O)[C@H](N)[C@H]3O)[C@H](N)C[C@@H]2N)[C@H](O)[C@@H](O)[C@@H]1O` [K, Kanamycin sulfate, reference compound], the MIC in assay [1] (setting [6]) is 1.95 µg/mL; in assay [2] (setting [7]), more than 100 µg/mL; in assay [3] (setting [8]), 1.95 µg/mL; in assay [4] (setting [9]), 1.95 µg/mL; in assay [5] (setting [10]), 3.9 µg/mL.

With `COc1c(O)cc2c(=O)oc3c(OC)c(O)ccc3c2c1O` [Compound 8, 3,8,10-trihydroxy-4,9-dimethoxy-6H-benzo[c]chromen-6-one], the MIC in assay [1] (setting [6]) is 15.6 µg/mL (≈ 51.3 µM); in assay [2] (setting [7]), more than 100 µg/mL; in assay [3] (setting [8]), 15.6 µg/mL (≈ 51.3 µM); in assay [4] (setting [9]), more than 100 µg/mL; in assay [5] (setting [10]), 31.2 µg/mL (≈ 103 µM). Besides, the “MIC, MRSA” value in assay [2] (setting [7]) was “inactive”.

As for `COc1cc2oc(=O)ccc2cc1O` [Compound 6, isoscopoletin], the MIC in assay [1] (setting [6]), in assay [2] (setting [7]), in assay [3] (setting [8]), in assay [4] (setting [9]) and in assay [5] (setting [10]) was more than 100 µg/mL throughout.

As for `O=c1cc(-c2ccc(O)cc2)oc2cc(O)c(O)cc12` [Compound 9, 6,7,4′-trihydroxyflavone], the minimum inhibitory concentration (MIC) in assay [1] (setting [6]), in assay [2] (setting [7]), in assay [3] (setting [8]), in assay [4] (setting [9]) and in assay [5] (setting [10]) was more than 100 µg/mL each time.

As to `CN[C@H](CC(C)C)C(=O)N[C@H]1C(=O)N[C@@H](CC(N)=O)C(=O)N[C@H]2C(=O)N[C@H]3C(=O)N[C@H](C(=O)N[C@H](C(=O)O)c4cc(O)cc(O)c4-c4cc3ccc4O)[C@H](O)c3ccc(c(Cl)c3)Oc3cc2cc(c3O[C@@H]2O[C@H](CO)[C@@H](O)[C@H](O)[C@H]2O[C@H]2C[C@](C)(N)[C@H](O)[C@H](C)O2)Oc2ccc(cc2Cl)[C@H]1O` [V, Vancomycin, reference compound], the minimum inhibitory concentration (MIC) in assay [1] was 1.95 µg/mL (≈ 1.35 µM); in assay [2] (Staphylococcus aureus) it was 3.9 µg/mL (≈ 2.69 µM); in assay [3] (CMCC63501, read-out: MIC, BS), 1.95 µg/mL (≈ 1.35 µM); in assay [4] (CMCC44102, read-out: MIC, EC) it was more than 100 µg/mL; in assay [5] (CMCC63302, read-out: MIC, BC) it was 1.95 µg/mL (≈ 1.35 µM).

Broadly, the MIC is the smallest concentration in the dilution series that meets the test's criterion for growth inhibition. What is called IC50 is the concentration needed to halve the response being measured.
